≈ marks a conversion by molar mass, not a printed value.
Experiments:
Propionibacteria = experiment: MIC with Propionibacteria (Table X); assay type: cell-based; conditions: 48 h, 48 hours at 37° C., anaerobic
Experimental: (§1) Further experiments have also been conducted to determine the MIC of a number of other compositions as follows. The experimental procedure followed is the same as that initially described at the beginning of this Examples and Data section of the specification, except where indicated below.
The results were obtained following incubation for 48 hours at 37° C. in anaerobic conditions.

yeasts = experiment: MIC with yeasts (Table XI); assay type: cell-based; conditions: 48 h, 48 hours at 37° C., aerobic
Experimental: as §1
The results were obtained following incubation for 48 hours at 37° C. in aerobic conditions.

[1] = tested on: Respiratory Syncytial Virus (RSV), strain A2; experiment: Antiviral: cytopathic effect of RSV on A549 cells; assay type: cell-based; conditions: for Cytopathic effect (cpe): added 1 hour after virus absorption, 96 hours at 33° C., versus untreated lane
Experimental: A549 (ATCC CCL-185) cells were plated onto a 96 well and allowed to attach overnight, the wells were washed, and 100 ul of DMEM (Gibco) with 2% FCS was added. To the first column of the data set below, 100 μl of neat virus was added. The virus used was Respiratory Syncytial Virus (RSV), strain A2, a common laboratory strain which retains the ability to infect animal models.
A two serial dilution was performed (up to column 10), lanes 11+12 were uninfected controls, but relevant lanes contained the appropriate concentration of Laureth 4, laureth 4 was added 1 hour after virus absorption. The alkoxylated alkanol compounds used in the experiment were ‘high purity’, i.e. having a GC purity of at least 97%.
After 96 hours incubation at 33° C. the medium was removed, cell washed with PBS and stained with methylene blue (Gibco). Cytopathic effect (cpe) was noted visually and wells marked either as positive or negative when view under a light microscope at 4× magnification.

MRSA NCTC 11939 = experiment: Synergy testing: disc susceptibility, zone of inhibition on agar containing Laureth derivative; assay type: cell-based, Staphylococcus aureus; conditions: MRSA NCTC 11939, disc test
Experimental: There now follows data relating to a screen for synergistic interaction between Laureth derivatives [C12E1 to C12E8] and 12 conventional anti-staphylococcal agents.
Ethoxylated Lauryl Alcohol Derivative Preparation As plates containing quarter strength of the MIC of NCTC 11939 are needed, and therefore very small weights of each compound, they were prepared at twenty time strength in 20 mL volumes in plastic universals. Once prepared these solutions were diluted […] by adding 1 mL to 1 mL SDW, resulting a 2 mL volume at ten times strength. This was undertaken in duplicate to create two identical plates.
IST was prepared as previously stated in above. 18 mL agar was added to each universal and then poured into sterile Petri dishes. Control plates were prepared as stated above
A 0.5 McFarland suspension of MRSA NCTC 11939 was prepared using SDW. This was then adjusted to a concentration of 1.5×107 by adding 200 μL to 1.8 mL of SDW. Once diluted, a sterile cotton swab was used to spread the suspension evenly across the entire surface of each agar plate.
Twelve antibiotics discs were added to the plates, 6 per plate in a circle. The plates were then incubated aerobically at 37° C.
The diameter of the zones of clearance were measured and recorded in millimetres. The zones for each compound were compared to the control and to BSAC breakpoints.
A variation of zone size within 2 mm is within acceptable limits of assay reproducibility.

`CCCCCCCCCCCCOCCOCCOCCOCCO` [L4, Tetraethylene Glycol Monododecyl Ether] showed an MIC (Propionibacteria; Propionibacterium granulosum 354039G) of 440 µM (≈ 160 µg/mL), an MIC (Propionibacteria; Propionibacterium granulosum 354043J) of 440 µM (≈ 160 µg/mL) and an MIC (Propionibacteria; Propionibacterium granulosum 354044V) of 880 µM (≈ 319 µg/mL). The MIC (Propionibacteria; Propionibacterium species 387327Y) was 440 µM (≈ 160 µg/mL), the MIC (Propionibacteria; certain of the Propionibacteria tested) was < 880 µM and the MIC (Propionibacteria; Cutibacterium acnes, Propionibacterium acnes 737) was 880 µM (≈ 319 µg/mL). The MIC (Propionibacteria; Cutibacterium avidum, Propionibacterium avidum 340090P) was 880 µM (≈ 319 µg/mL), the MIC (Propionibacteria; Cutibacterium avidum, Propionibacterium avidum 340093T) was 880 µM (≈ 319 µg/mL) and the MIC (Propionibacteria; Cutibacterium avidum, Propionibacterium avidum 340097V) was 880 µM (≈ 319 µg/mL). For the same molecule, the MIC (Propionibacteria; Cutibacterium avidum, Propionibacterium avidum 354020J) was 880 µM (≈ 319 µg/mL), the MIC (Propionibacteria; Cutibacterium avidum, Propionibacterium avidum 354025L) was 880 µM (≈ 319 µg/mL) and the MIC (yeasts; Candida guilliemondii 380022E) was > 220 µM. For the same molecule, the MIC (yeasts; Candida lustaniae 458891B) was > 220 µM, the MIC (yeasts; all of the yeasts tested) was < 880 µM and the MIC (yeasts; Candida albicans, Candida albicans 383107) was > 220 µM. For the same molecule, the MIC (yeasts; Candida albicans, Candida albicans 384403C) was 220 µM (≈ 79.8 µg/mL), the MIC (yeasts; Candida albicans, Candida albicans 457932F) was > 220 µM and the MIC (yeasts; Candida albicans, Candida albicans 464644V) was 220 µM (≈ 79.8 µg/mL). For the same molecule, the MIC (yeasts; Candida albicans, Candida albicans 540668D) was 110 µM (≈ 39.9 µg/mL), the MIC (yeasts; Candida albicans, Candida albicans 540992V) was 220 µM (≈ 79.8 µg/mL) and the MIC (yeasts; Candida albicans, Candida albicans 561251J) was > 220 µM. The MIC (yeasts; Candida dubliniensis, Candida dubliniensis 383086P) was 110 µM (≈ 39.9 µg/mL), the MIC (yeasts; Candida tropicalis, Candida tropicalis 470273M) was > 220 µM and the MIC (yeasts; Kluyveromyces marxianus, Candida kefyr 337838T) was 55 µM (≈ 19.9 µg/mL). For the same molecule, the MIC (yeasts; Lodderomyces parapsilosis, Candida parapsilosis 381611V) was > 220 µM, the MIC (yeasts; Lodderomyces parapsilosis, Candida parapsilosis 547133B) was > 220 µM and the MIC (yeasts; Nakaseomyces glabratus, Candida glabrata 437713D) was > 220 µM. For the same molecule, the MIC (yeasts; Nakaseomyces glabratus, Candida glabrata 882870Q) was > 220 µM, the MIC (yeasts; Pichia kudriavzevii, Candida krusei 378573D) was > 220 µM and the “Cytopathic effect (cpe)” value ([1]; 0.01 mM) was “significantly reduced”. The “Cytopathic effect (cpe)” value ([1]; 0.1 mM) was “significantly reduced” and the “cytopathic effect of the virus on the cells (overall)” value ([1]; RSV A2 on A549 cells) was “can alleviate the cytopathic effect”.
`CCCCCCCCCCCCOCCOCCOCCOCCOCCOCCOCCOCCO` [L8, Octaethylene Glycol Monododecyl Ether] was tested, and the “susceptibility to various other agents in the presence of Laureth derivative” value (MRSA NCTC 11939) was “slight increase in susceptibility”.

Source: patent US20130165368A1, “ANTIMICROBIAL COMPOUNDS” (priority 2010, published 2013)
